Some results are limits rather than exact numbers.

The target in the first assay is T1, ER (Homo sapiens, UniProt P03372).
T1 construct: host or cells: T47D and MCF7 human breast cancer cells
T1 sequence (P03372 1-595): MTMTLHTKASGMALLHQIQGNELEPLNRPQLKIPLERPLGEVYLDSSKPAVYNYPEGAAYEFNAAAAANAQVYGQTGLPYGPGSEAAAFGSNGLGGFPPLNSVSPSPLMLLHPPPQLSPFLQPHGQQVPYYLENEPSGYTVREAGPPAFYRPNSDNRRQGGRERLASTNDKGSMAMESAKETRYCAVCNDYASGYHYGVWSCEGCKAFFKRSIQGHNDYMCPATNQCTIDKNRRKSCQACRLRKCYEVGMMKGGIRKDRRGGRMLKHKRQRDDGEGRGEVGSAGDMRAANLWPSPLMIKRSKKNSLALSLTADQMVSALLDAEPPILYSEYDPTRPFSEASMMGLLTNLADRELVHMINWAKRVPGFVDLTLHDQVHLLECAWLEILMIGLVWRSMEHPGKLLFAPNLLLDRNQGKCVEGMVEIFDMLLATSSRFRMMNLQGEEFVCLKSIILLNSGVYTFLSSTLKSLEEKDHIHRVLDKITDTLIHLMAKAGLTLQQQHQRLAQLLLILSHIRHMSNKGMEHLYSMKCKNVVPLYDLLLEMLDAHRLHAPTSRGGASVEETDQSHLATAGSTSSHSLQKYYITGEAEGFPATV
As to the kind of experiment: ER degradation activity, in-cell western blot analysis in T47D cells. The assay is classed as cell-based. The conditions noted are these: 16 hours, Table A does not say which cell line (T47D or MCF7), read-out: Potency (DC50). The method in brief: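 ER protein remaining after 16 h compound exposure is quantified in T47D cells by in-cell western, with a no-primary-antibody background control. Values are percentages of DMSO-treated signal.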
Regarding `C[C@@H]1Cc2cc(O)ccc2[C@@H](c2c(F)cc(N3CC4(CCN(CC(=O)N5Cc6cc7c(cc6C5)C(=O)N(C5CCC(=O)NC5=O)C7)CC4)C3)cc2F)N1CC(C)(F)F` (stereo partly drawn) [E 26, 3-(6-(2-(2-(4-((1S,3R)-2-(2,2-difluoropropyl)-6-hydroxy-3-methyl-1,2,3,4-tetrahydroisoquinolin-1-yl)-3,5-difluorophenyl)-2,7-diazaspiro[3.5]nonan-7-yl)acetyl)-1-oxo-3,5,6,7-tetrahydropyrrolo[3,4-f]isoindol-2(1H)-yl)piperidine-2,6-dione], the DC50 (commonly the concentration at which degradation of the target reaches its halfway point) was greater than 100 nM. The same measure, in the same setting: under `O=C1CCC(N2C(=O)c3cc4c(cc3C2=O)CN(CCN2CC3(CCN(c5ccc([C@@H]6c7ccc(O)cc7CC[C@@H]6c6ccccc6)cc5)CC3)C2)C4)C(=O)N1` (mixture of isomers) [E 267, rac-2-(2,6-dioxopiperidin-3-yl)-6-(2-(7-(4-((1R,2S)-6-hydroxy-2-phenyl-1,2,3,4-tetrahydronaphthalen-1-yl)phenyl)-2,7-diazaspiro[3.5]nonan-2-yl)ethyl)-6,7-dihydropyrrolo[3,4-f]isoindole-1,3(2H,5H)-dione] stands 10 to 100 nM; under `O=C1CCC(N2C(=O)c3cc4c(cc3C2=O)CN([C@H]2CC[C@H](C(=O)N3CC(Oc5ccc([C@H]6c7ccc(O)cc7CC[C@H]6c6ccccc6)cc5)C3)CC2)C4)C(=O)N1` (stereo partly drawn) [E 385, 2-(2,6-dioxopiperidin-3-yl)-6-((1S,4r)-4-(3-(4-((1S,2R)-6-hydroxy-2-phenyl-1,2,3,4-tetrahydronaphthalen-1-yl)phenoxy)azetidine-1-carbonyl)cyclohexyl)-6,7-dihydropyrrolo[3,4-f]isoindole-1,3(2H,5H)-dione], less than 10 nM.

Turning to `O=C1CCC(N2C(=O)c3cc4c(cc3C2=O)CN(CC(=O)N2CCC3(CC2)CCN(c2ccc([C@@H]5c6ccc(O)cc6CC[C@@H]5c5ccc(F)cc5)cc2)CC3)CC4)C(=O)N1` (mixture of isomers) [E 165, rac-2-(2,6-dioxopiperidin-3-yl)-6-(2-(9-(4-((1R,2S)-2-(4-fluorophenyl)-6-hydroxy-1,2,3,4-tetrahydronaphthalen-1-yl)phenyl)-3,9-diazaspiro[5.5]undecan-3-yl)-2-oxoethyl)-5,6,7,8-tetrahydro-1H-pyrrolo[3,4-g]isoquinoline-1,3(2H)-dione], the DC50 was in the range of 10 to 100 nM.

Take `O=C1CCC(N2C(=O)c3cc4c(cc3C2=O)CN(Cc2ccc(N3CCN(c5ccc([C@@H]6c7ccc(O)cc7CC[C@@H]6c6ccccc6)cc5)CC3)nc2)C4)C(=O)N1` (stereo partly drawn) [E 311, 2-(2,6-dioxopiperidin-3-yl)-6-((6-(4-(4-((1R,2S)-6-hydroxy-2-phenyl-1,2,3,4-tetrahydronaphthalen-1-yl)phenyl)piperazin-1-yl)pyridin-3-yl)methyl)-6,7-dihydropyrrolo[3,4-f]isoindole-1,3(2H,5H)-dione]: the DC50 is greater than 100 nM. Still for that read-out and setting: under `O=C1CCC(N2C(=O)c3cc4c(cc3C2=O)CN(CC(=O)N2CCC3(CC2)CCN(c2ccc(C(=C(CCCl)c5ccccc5)c5ccc(B(O)O)cc5)cc2)CC3)C4)C(=O)N1` (stereo not shown) [E 197, (4-(4-chloro-1-(4-(9-(2-(6-(2,6-dioxopiperidin-3-yl)-5,7-dioxo-3,5,6,7-tetrahydropyrrolo[3,4-f]isoindol-2(1H)-yl)acetyl)-3,9-diazaspiro[5.5]undecan-3-yl)phenyl)-2-phenylbut-1-en-1-yl)phenyl)boronic acid] stands 10 to 100 nM; under `C[C@@H]1Cc2cc(O)ccc2[C@@H](c2c(F)cc(N3CCC4(CCN(CC(=O)N5Cc6cc7c(cc6C5)C(=O)N(C5CCC(=O)NC5=O)C7=O)C4)CC3)cc2F)N1CC(C)(F)F` (stereo partly drawn) [E 33, 6-(2-(8-(4-((1S,3R)-2-(2,2-difluoropropyl)-6-hydroxy-3-methyl-1,2,3,4-tetrahydroisoquinolin-1-yl)-3,5-difluorophenyl)-2,8-diazaspiro[4.5]decan-2-yl)acetyl)-2-(2,6-dioxopiperidin-3-yl)-6,7-dihydropyrrolo[3,4-f]isoindole-1,3(2H,5H)-dione], greater than 100 nM. Same read-out and setting: as for `C[C@@H]1Cc2c([nH]c3ccccc23)[C@@H](c2c(F)cc(N3CCC4(CCN(C(=O)CN5Cc6cc7c(cc6C5)C(=O)N(C5CCC(=O)NC5=O)C7)C4)CC3)cc2F)N1CC(F)F` (stereo partly drawn) [E 64, 3-(6-(2-(8-(4-((1R,3R)-2-(2,2-difluoroethyl)-3-methyl-2,3,4,9-tetrahydro-1H-pyrido[3,4-b]indol-1-yl)-3,5-difluorophenyl)-2,8-diazaspiro[4.5]decan-2-yl)-2-oxoethyl)-1-oxo-3,5,6,7-tetrahydropyrrolo[3,4-f]isoindol-2(1H)-yl)piperidine-2,6-dione], the figure is less than 10 nM. The same measure, in the same setting: as for `O=C1CCC(N2C(=O)c3cc4c(cc3C2=O)CN(CC(=O)N2CC3(CCN(c5ccc(C(=C(CCCl)c6ccccc6)c6ccc(O)cc6)cc5)CC3)C2)C4)C(=O)N1` (stereo not shown) [E 187, 6-(2-(7-(4-(4-chloro-1-(4-hydroxyphenyl)-2-phenylbut-1-en-1-yl)phenyl)-2,7-diazaspiro[3.5]nonan-2-yl)-2-oxoethyl)-2-(2,6-dioxopiperidin-3-yl)-6,7-dihydropyrrolo[3,4-f]isoindole-1,3(2H,5H)-dione], the figure is 10 to 100 nM; as for `C[C@@H]1Cc2cc(O)ccc2[C@@H](c2ccc(N3CCC(C(=O)N4CCC(N5Cc6cc7c(cc6C5)C(=O)N(C5CCC(=O)NC5=O)C7=O)CC4)CC3)cc2F)N1CC(F)F` (stereo partly drawn) [E 323, 6-(1-(1-(4-((1S,3R)-2-(2,2-difluoroethyl)-6-hydroxy-3-methyl-1,2,3,4-tetrahydroisoquinolin-1-yl)-3-fluorophenyl)piperidine-4-carbonyl)piperidin-4-yl)-2-(2,6-dioxopiperidin-3-yl)-6,7-dihydropyrrolo[3,4-f]isoindole-1,3(2H,5H)-dione], less than 10 nM; as for `O=C1CCC(N2C(=O)c3cc4c(cc3C2=O)CCN(C(=O)CN2CCC3(CC2)CCN(c2ccc([C@@H]5c6ccc(O)cc6CC[C@@H]5c5ccccc5)cc2)CC3)CC4)C(=O)N1` (stereo partly drawn) [E 167, 2-(2,6-dioxopiperidin-3-yl)-7-(2-(9-(4-((1R,2S)-6-hydroxy-2-phenyl-1,2,3,4-tetrahydronaphthalen-1-yl)phenyl)-3,9-diazaspiro[5.5]undecan-3-yl)acetyl)-6,7,8,9-tetrahydroazepino[4,5-f]isoindole-1,3(2H,5H)-dione], greater than 100 nM.

The assay is the same for the next values; noted with them: compounds 16 hours, Table A does not say whether T47D or MCF7, read-out: Potency (DC50).
Consider `O=C1CCC(N2C(=O)c3cc4c(cc3C2=O)CN(CC2CCC3(CC2)CN(C(=O)c2ccc([C@@H]5c6ccc(O)cc6CC[C@@H]5c5ccccc5)cc2)C3)C4)C(=O)N1` (stereo partly drawn) [E 493, 2-(2,6-dioxopiperidin-3-yl)-6-((2-(4-((1R,2S)-6-hydroxy-2-phenyl-1,2,3,4-tetrahydronaphthalen-1-yl)benzoyl)-2-azaspiro[3.5]nonan-7-yl)methyl)-6,7-dihydropyrrolo[3,4-f]isoindole-1,3(2H,5H)-dione], for which the DC50 is greater than 100 nM. On to `C[C@@H]1Cc2cc(O)ccc2[C@@H](c2ccc(C3=CCC4(CC3)CCN(C(=O)CN3Cc5cc6c(cc5C3)C(=O)N(C3CCC(=O)NC3=O)C6=O)CC4)cc2)N1CC(F)F` (stereo partly drawn) [E 448, 6-(2-(9-(4-((1R,3R)-2-(2,2-difluoroethyl)-6-hydroxy-3-methyl-1,2,3,4-tetrahydroisoquinolin-1-yl)phenyl)-3-azaspiro[5.5]undec-8-en-3-yl)-2-oxoethyl)-2-(2,6-dioxopiperidin-3-yl)-6,7-dihydropyrrolo[3,4-f]isoindole-1,3(2H,5H)-dione], for which the DC50 was greater than 100 nM. Take `C[C@@H]1Cc2c([nH]c3ccccc23)[C@@H](c2ncc(C3CCC(C(=O)N4CCC(N5Cc6cc7c(cc6C5)C(=O)N(C5CCC(=O)NC5=O)C7=O)CC4)CC3)cc2F)N1CC(F)F` (stereo partly drawn) [E 406, 6-(1-(4-(6-((1S,3R)-2-(2,2-difluoroethyl)-3-methyl-2,3,4,9-tetrahydro-1H-pyrido[3,4-b]indol-1-yl)-5-fluoropyridin-3-yl)cyclohexane-1-carbonyl)piperidin-4-yl)-2-(2,6-dioxopiperidin-3-yl)-6,7-dihydropyrrolo[3,4-f]isoindole-1,3(2H,5H)-dione]: the DC50 is greater than 100 nM. Regarding `C[C@@H]1Cc2c(ccc3[nH]ncc23)[C@@H](c2c(F)cc(C3=CCC(C(=O)N4CCC(N5Cc6cc7c(cc6C5)C(=O)N(C5CCC(=O)NC5=O)C7=O)CC4)CC3)cc2F)N1CC(F)F` (mixture of isomers) [E 468, 6-(1-(4′-((6S,8R)-7-(2,2-difluoroethyl)-8-methyl-6,7,8,9-tetrahydro-3H-pyrazolo[4,3-f]isoquinolin-6-yl)-3′,5′-difluoro-2,3,4,5-tetrahydro-[1,1′-biphenyl]-4-carbonyl)piperidin-4-yl)-2-(2,6-dioxopiperidin-3-yl)-6,7-dihydropyrrolo[3,4-f]isoindole-1,3(2H,5H)-dione], the 50% degradation concentration (DC50) lay within 10 to 100 nM. Take `C[C@@H]1Cc2c([nH]c3ccccc23)[C@@H](c2cnc(N3CC4(CCC(CN5Cc6cc7c(cc6C5)C(=O)N(C5CCC(=O)NC5=O)C7=O)CC4)C3)nc2)N1CC(C)(C)F` (stereo partly drawn) [E 471, 2-(2,6-dioxopiperidin-3-yl)-6-((2-(5-((1R,3R)-2-(2-fluoro-2-methylpropyl)-3-methyl-2,3,4,9-tetrahydro-1H-pyrido[3,4-b]indol-1-yl)pyrimidin-2-yl)-2-azaspiro[3.5]nonan-7-yl)methyl)-6,7-dihydropyrrolo[3,4-f]isoindole-1,3(2H,5H)-dione]: the DC50 is 10 to 100 nM.

The record behind these values is US20240190880A1 (THE REGENTS OF THE UNIVERSITY OF MICHIGAN, priority 2021, published 2024).
